Assay results reported in US20260224594A1, “COMPOSITION FOR TREATING CANCER CACHEXIA, COMPRISING DIFLUNISAL OR A PHARMACEUTICALLY ACCEPTABLE SALT THEREOF” (ANIMUSCURE INC., priority 2023, published 2026).

Legend:
[1] = tested on: C2C12 myoblast cells; assay: Cytotoxicity of diflunisal, MTT assay; format: cell-based, mouse; conditions: approximately 10,000 nM, 18 hours, vs control
Method: C2C12 is a myoblast cell line obtained from the C3H mouse strain, and is widely used to study muscle cell differentiation. The cells were cultured in a cell culture medium (growth medium (GM)), and muscle cell differentiation was induced in a differentiation medium (DM). DMEM containing 15% fetal bovine serum (FBS) was used as the cell culture medium, and DMEM containing 2% horse serum was used as the differentiation medium.
The cytotoxicity of diflunisal (CAS No. 22494-42-4, W06) was evaluated using an MTT assay. C2C12 myoblast cells were treated with diflunisal at concentrations of 0, 1, 10, 100, 1,000, and 10,000 nM for 18 hours, and cell viability was then confirmed using the MTT assay. Myoblast cells (1.0×10^4 cells/96 well) were allowed to react with 5 mg/mL MTT for 4 hours in a cell culture medium, and the eluted reaction product was then measured for absorbance at 570 nm.

[2] = tested on: C2C12 cell lines; assay: Muscle cell differentiation, MHC immunofluorescence staining and myotube diameter; format: cell-based, mouse; conditions: 10, 100, 1,000, 10,000 nM, day 3 of differentiation induction
Method: (§1) C2C12 is a myoblast cell line obtained from the C3H mouse strain, and is widely used to study muscle cell differentiation. The cells were cultured in a cell culture medium (growth medium (GM)), and muscle cell differentiation was induced in a differentiation medium (DM). DMEM containing 15% fetal bovine serum (FBS) was used as the cell culture medium, and DMEM containing 2% horse serum was used as the differentiation medium. To induce muscle cell differentiation, cells were seeded in a cell culture medium and cultured. When the density of cells reached approximately 80% to 90%, the medium was replaced with a differentiation medium, and differentiation was induced for approximately 2 to 3 days. To analyze the effect of diflunisal on the differentiation of muscle stem cells, MHC immunofluorescence staining was performed (FIG. 2). […] On day 3 of differentiation induction, immunofluorescence staining was performed using an MHC antibody to compare and analyze the degree of myotube formation.

[3] = tested on: C2C12 cell lines; assay: Immunoblotting of differentiation markers MHC and myogenin; format: cell-based, mouse; conditions: positive control ursolic acid (UA)
Method: as §1, with “formation. […] In addition, the expression levels of differentiation markers were confirmed through immunoblotting.” for “formation.”

[4] = tested on: C2C12 myoblast cells; assay: Myoblast proliferation, BrdU staining; format: cell-based, mouse; conditions: 1 μM, approximately 20 hours
Method: To analyze the effect of diflunisal on the proliferation of myoblast cells, a BrdU staining experiment was performed. C2C12 myoblast cells were treated with DMSO as a control or diflunisal (1 μM) for approximately 20 hours, and then allowed to react with BrdU for 15 minutes. Thereafter, immunofluorescence staining was performed using an antibody against BrdU (FIG. 5A). As a result, it was confirmed that the proliferation of myoblast cells increased in the group treated with diflunisal.

[5] = tested on: Pax7; assay: Pax7 mRNA expression (qRT-PCR); format: cell-based, mouse; conditions: C2C12 cells treated with diflunisal
Source text: FIGS. 5A-5B and 6 show the results of confirming the stem cell differentiation-promoting effect through administration of diflunisal. […] In addition, it was confirmed whether the expression level of Pax7, which is a muscle proliferation marker, increased due to diflunisal treatment.

[6] = tested on: C57BL/6 male mice with CTX-induced muscle damage; assay: Stem cell proliferation in cardiotoxin (CTX) muscle damage animal model, BrdU staining of TA muscle; format: in vivo, mouse; conditions: oral 0.02 mg/kg for 2 weeks, CTX injection, then 0.02 mg/kg for 3 days
Method: C57BL/6 male mice were orally administered diflunisal at a dose of 0.02 mg/kg for 2 weeks, and then on the second week, 10 μM cardiotoxin (CTX) was directly injected into the muscle at 2 μL per g of body weight to induce muscle damage. Thereafter, diflunisal was administered at a dose of 0.02 mg/kg for 3 days. Then, immunofluorescence staining was performed on the TA muscle tissue of the mice using a BrdU antibody. […] Also, a quantitative comparison confirmed that the proportion of BrdU-positive cells increased by more than 2.5 times compared to the control when the cells were treated with diflunisal (FIG. 8).

[7] = tested on: C2C12 myoblast cells; assay: Dexamethasone (DEX)-induced muscle atrophy in C2C12 myotubes; format: cell-based, mouse; conditions: 100 μM DEX pretreatment 4 hours, diflunisal 1 μM, 24 hours in DM
Method: To determine whether diflunisal could recover or protect muscles from dexamethasone (DEX)-induced muscle atrophy, this experiment was performed using C2C12 myoblast cells. C2C12 myoblast cells were differentiated in a differentiation medium (DM) for 2 days, pretreated with 100 μM DEX for 4 hours, and then treated with diflunisal (1 μM) together with DMSO as a vehicle. Then, the C2C12 myoblast cells were further cultured in DM for 24 hours. Immunofluorescence staining was performed on dexamethasone-treated C2C12 myotube cells using an MHC antibody to compare and analyze the degree of myotube formation. […] Also, when the expression level of atrogin-1, which is a muscle atrophy marker, was confirmed through immunoblotting, it was confirmed that its expression increased when dexamethasone was administered.

[8] = tested on: muscle cells (myotubes) in cancer cell culture medium (CM); assay: Cachexia induced by cancer cell culture medium (CM) in muscle cells; format: cell-based; conditions: 10, 100, 1,000 nM
Method: To confirm the amelioration effect of diflunisal on cancer cachexia, cancer cachexia was induced in muscle cells using a cancer cell culture medium (CM) (FIG. 11, top). […] Also, the diameter of the myotubes was measured to confirm the improvement.

[9] = tested on: C57BL/6 mice injected with Lewis lung carcinoma; assay: Cancer cachexia animal model (Lewis lung carcinoma injected mice); format: in vivo, mouse
Method: Lewis lung carcinoma (LCC, 5×10^6 cells/mice) was injected into C57BL/6 mice to induce lung cancer. Two weeks after injection, diflunisal was orally administered daily for 21 days at a dose of 0.02 or 0.2 mpk (FIG. 13). Thereafter, the changes in body weight, tumor weight, and tumor-free body weight for each mouse were measured. […] To compare the motor ability in the cancer cachexia-induced mouse model, a grip strength test was conducted for each experimental group. […]

[10] = cancer cachexia-induced mice, diflunisal administered

Question: O=C(O)c1cc(-c2ccc(F)cc2F)ccc1O [diflunisal] was tested. Which “cell viability (MTT assay)” value [1] did it give?
Answer: almost similar to that of the control

Question: And the diameter of myotubes [2]?
Answer: increased in a concentration-dependent manner

Question: What about the “muscle cell differentiation (myotube formation, MHC immunofluorescence)” value ([2]; vs DMSO control) of the same compound?
Answer: promoted in a concentration-dependent manner

Question: And the “expression of differentiation marker MHC (immunoblotting)” value [3]?
Answer: induced an increase in the expression

Question: And the “expression of differentiation marker myogenin (immunoblotting)” value [3]?
Answer: induced an increase in the expression

Question: And the “proliferation of myoblast cells (BrdU immunofluorescence staining)” value ([4]; vs DMSO)?
Answer: increased

Question: And the “proportion of BrdU-positive cells” value ([4]; vs DMSO control)?
Answer: significantly increased compared to the control

Question: What about the “relative expression level of Pax7 mRNA” value [5] of the same compound?
Answer: increased

Question: What about the “increase of proportion of BrdU-positive cells compared to the control” value ([6]; TA muscle) of the same compound?
Answer: more than 2.5 times

Question: And the “proliferation of myoblast cells in TA muscle (BrdU staining)” value [6]?
Answer: increased

Question: What about the “MHC expression (immunofluorescence) after dexamethasone-induced atrophy” value [7] of the same compound?
Answer: restored

Question: What about the “MuRF1 expression (qRT-PCR)” value [7] of the same compound?
Answer: significantly reduced

Question: What about the “expression level of atrogin-1 (muscle atrophy marker, immunoblotting)” value [7] of the same compound?
Answer: decreased again

Question: What about the “diameter of myotubes in CM-induced cancer cachexia model” value [8] of the same compound?
Answer: increased in a concentration-dependent manner

Question: And the tumor-free body weight ([9]; 0.02 mpk oral daily for 21 days, vs cancer-induced group)?
Answer: significantly increased compared to the cancer-induced group

Question: And the “grip strength (motor ability)” value ([9]; 0.02 or 0.2 mpk oral daily for 21 days, vs cancer-induced group)?
Answer: increased in a concentration-dependent manner

Question: What about the “muscle mass loss of hindlimb muscles (TA, EDL, SOL, GA)” value [9, 10] of the same compound?
Answer: significantly improved

Question: And the “reduction in fat and organ weights (white fat, visceral fat, liver, heart, spleen)” value [9, 10]?
Answer: improved

Question: What about the “relative mRNA expression level of MuRF-1” value [9, 10] of the same compound?
Answer: decreased again

Question: What about the “relative mRNA expression level of atrogin-1” value [9, 10] of the same compound?
Answer: decreased again

Question: And the “change (decrease) in tumor-free body weight” value ([9]; oral daily for 21 days, 0.02 or 0.2 mpk)?
Answer: improved

Question: What about the overall body weight ([9]; oral daily for 21 days, 0.02 or 0.2 mpk, all experimental groups) of the same compound?
Answer: no significant change
